Laboratory results reported in ChEMBL document CHEMBL5360658, “Discovery of MK-8768, a Potent and Selective mGluR2 Negative Allosteric Modulator” (ACS Med Chem Lett, 2023).
≈ marks a conversion by molar mass, not a printed value.

Tests used:
[1] = Solubility of the compound in FaSSIF; assay type: physicochemical
[2] = molecular target: Cytochrome P450 2D6 (Homo sapiens, UniProt P10635); assay: […] of CYP2D6 (unknown origin); assay type: ADME
[3] = Volume of distribution in monkey at 0.5 mg/kg, iv; assay type: ADME, organism-based, Macaca mulatta; settings: rhesus monkey, in vivo
[4] = Solubility of the compound in SGF buffer; assay type: physicochemical
[5] = molecular target: Metabotropic glutamate receptor 8 (Homo sapiens, UniProt O00222); assay: Negative allosteric modulation at mGluR8 receptor (unknown origin) assessed as effect on intracellular calcium flux measured after 5 min by Fluo-4AM dye based FLIPR analysis; assay type: functional, cell-based
[6] = molecular target: T1, Cytochrome P450 1A2 (Homo sapiens, UniProt P05177); assay: […] of CYP1A2 (unknown origin); assay type: ADME
T1 sequence (P05177 whole entry): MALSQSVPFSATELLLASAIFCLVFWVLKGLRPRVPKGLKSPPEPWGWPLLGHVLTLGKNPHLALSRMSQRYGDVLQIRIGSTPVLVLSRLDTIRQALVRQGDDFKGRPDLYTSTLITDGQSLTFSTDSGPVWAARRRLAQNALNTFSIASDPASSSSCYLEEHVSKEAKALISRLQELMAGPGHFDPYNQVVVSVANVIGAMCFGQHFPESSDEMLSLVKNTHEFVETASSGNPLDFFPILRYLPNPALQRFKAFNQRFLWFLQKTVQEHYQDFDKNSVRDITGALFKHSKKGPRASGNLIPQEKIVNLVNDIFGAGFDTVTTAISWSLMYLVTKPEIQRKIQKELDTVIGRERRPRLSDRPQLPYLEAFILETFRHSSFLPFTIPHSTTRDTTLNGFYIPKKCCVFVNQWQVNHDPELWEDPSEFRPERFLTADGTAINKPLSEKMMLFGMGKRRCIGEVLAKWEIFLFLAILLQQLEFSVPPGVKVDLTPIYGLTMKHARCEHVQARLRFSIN

[7] = Oral bioavailability in dog at 0.5 mg/kg; assay type: ADME, organism-based, Canis lupus familiaris; settings: in vivo
[8] = Effective half life in dog at 0.25 mg/kg, iv; assay type: ADME, organism-based, Canis lupus familiaris; settings: in vivo, read-out: t1/2eff (converted)
[9] = molecular target: Cytochrome P450 2C19 (Homo sapiens, UniProt P33261); assay: […] of CYP2C19 (unknown origin); assay type: ADME
[10] = Clearance in rat at 1 mg/kg, iv; assay type: ADME, organism-based; settings: in vivo
[11] = molecular target: Voltage-gated inwardly rectifying potassium channel KCNH2 (Homo sapiens, UniProt Q12809); assay: Displacement of [35S]-MK-499 from hERG expressed in HEK293 cells […]; assay type: toxicity, cell-based
Chain of Voltage-gated inwardly rectifying potassium channel KCNH2 (Q12809 whole entry): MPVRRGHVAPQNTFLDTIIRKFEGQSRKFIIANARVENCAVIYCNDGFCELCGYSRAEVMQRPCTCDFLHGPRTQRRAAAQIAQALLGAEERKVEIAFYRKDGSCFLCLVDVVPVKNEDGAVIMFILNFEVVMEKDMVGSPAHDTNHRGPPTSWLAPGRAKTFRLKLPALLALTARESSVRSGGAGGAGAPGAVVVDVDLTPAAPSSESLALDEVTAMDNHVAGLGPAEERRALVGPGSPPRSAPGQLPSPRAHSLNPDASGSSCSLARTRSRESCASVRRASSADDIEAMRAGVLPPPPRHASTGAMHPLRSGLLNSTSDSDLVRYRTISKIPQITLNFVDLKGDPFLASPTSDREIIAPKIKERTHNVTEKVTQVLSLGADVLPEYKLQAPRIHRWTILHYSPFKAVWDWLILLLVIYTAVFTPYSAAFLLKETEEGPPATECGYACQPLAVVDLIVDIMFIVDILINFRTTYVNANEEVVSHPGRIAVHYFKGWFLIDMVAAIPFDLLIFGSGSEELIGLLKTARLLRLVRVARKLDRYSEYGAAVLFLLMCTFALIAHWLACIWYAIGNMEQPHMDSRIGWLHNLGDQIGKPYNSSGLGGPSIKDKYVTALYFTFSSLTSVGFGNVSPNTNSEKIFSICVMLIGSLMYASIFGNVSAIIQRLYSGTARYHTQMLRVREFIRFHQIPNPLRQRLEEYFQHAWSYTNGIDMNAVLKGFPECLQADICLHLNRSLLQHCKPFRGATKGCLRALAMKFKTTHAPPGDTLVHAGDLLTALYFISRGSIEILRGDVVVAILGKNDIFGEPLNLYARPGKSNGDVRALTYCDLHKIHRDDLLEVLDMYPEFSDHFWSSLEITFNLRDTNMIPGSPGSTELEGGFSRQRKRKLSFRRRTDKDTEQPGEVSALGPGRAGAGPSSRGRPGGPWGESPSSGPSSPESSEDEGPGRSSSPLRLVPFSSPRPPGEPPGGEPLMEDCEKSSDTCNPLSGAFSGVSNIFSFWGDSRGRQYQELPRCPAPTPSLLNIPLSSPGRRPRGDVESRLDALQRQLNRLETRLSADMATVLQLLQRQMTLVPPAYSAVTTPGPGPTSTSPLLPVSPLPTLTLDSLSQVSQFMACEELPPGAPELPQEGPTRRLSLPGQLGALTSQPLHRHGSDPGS

[12] = Fraction unbound in dog plasma; assay type: ADME, cell-free, Canis lupus familiaris
[13] = molecular target: Cytochrome P450 2C9 (Homo sapiens, UniProt P11712); assay: […] of CYP2C9 (unknown origin); assay type: ADME
Chain of Cytochrome P450 2C9 (P11712 whole entry): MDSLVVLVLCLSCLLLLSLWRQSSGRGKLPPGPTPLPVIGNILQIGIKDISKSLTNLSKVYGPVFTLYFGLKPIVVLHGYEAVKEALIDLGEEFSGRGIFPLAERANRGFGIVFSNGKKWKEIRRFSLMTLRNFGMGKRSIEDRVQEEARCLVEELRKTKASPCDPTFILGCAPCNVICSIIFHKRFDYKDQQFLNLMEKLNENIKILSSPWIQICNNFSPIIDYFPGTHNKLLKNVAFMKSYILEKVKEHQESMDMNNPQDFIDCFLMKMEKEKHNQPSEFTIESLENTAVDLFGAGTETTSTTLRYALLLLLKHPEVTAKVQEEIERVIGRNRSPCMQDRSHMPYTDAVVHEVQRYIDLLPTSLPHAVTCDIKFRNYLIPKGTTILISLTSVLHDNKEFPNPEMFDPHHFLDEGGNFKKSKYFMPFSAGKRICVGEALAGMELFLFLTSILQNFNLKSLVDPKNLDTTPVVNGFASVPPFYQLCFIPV

[14] = Volume of distribution in rat at 1 mg/kg, iv; assay type: ADME, organism-based; settings: in vivo
[15] = molecular target: Metabotropic glutamate receptor 1 (Homo sapiens, UniProt Q13255); assay: Negative allosteric modulation at mGluR1 receptor (unknown origin) assessed as effect on intracellular calcium flux measured after 5 min by Fluo-4AM dye based FLIPR analysis; assay type: functional, cell-based
Chain of Metabotropic glutamate receptor 1 (Q13255 whole entry): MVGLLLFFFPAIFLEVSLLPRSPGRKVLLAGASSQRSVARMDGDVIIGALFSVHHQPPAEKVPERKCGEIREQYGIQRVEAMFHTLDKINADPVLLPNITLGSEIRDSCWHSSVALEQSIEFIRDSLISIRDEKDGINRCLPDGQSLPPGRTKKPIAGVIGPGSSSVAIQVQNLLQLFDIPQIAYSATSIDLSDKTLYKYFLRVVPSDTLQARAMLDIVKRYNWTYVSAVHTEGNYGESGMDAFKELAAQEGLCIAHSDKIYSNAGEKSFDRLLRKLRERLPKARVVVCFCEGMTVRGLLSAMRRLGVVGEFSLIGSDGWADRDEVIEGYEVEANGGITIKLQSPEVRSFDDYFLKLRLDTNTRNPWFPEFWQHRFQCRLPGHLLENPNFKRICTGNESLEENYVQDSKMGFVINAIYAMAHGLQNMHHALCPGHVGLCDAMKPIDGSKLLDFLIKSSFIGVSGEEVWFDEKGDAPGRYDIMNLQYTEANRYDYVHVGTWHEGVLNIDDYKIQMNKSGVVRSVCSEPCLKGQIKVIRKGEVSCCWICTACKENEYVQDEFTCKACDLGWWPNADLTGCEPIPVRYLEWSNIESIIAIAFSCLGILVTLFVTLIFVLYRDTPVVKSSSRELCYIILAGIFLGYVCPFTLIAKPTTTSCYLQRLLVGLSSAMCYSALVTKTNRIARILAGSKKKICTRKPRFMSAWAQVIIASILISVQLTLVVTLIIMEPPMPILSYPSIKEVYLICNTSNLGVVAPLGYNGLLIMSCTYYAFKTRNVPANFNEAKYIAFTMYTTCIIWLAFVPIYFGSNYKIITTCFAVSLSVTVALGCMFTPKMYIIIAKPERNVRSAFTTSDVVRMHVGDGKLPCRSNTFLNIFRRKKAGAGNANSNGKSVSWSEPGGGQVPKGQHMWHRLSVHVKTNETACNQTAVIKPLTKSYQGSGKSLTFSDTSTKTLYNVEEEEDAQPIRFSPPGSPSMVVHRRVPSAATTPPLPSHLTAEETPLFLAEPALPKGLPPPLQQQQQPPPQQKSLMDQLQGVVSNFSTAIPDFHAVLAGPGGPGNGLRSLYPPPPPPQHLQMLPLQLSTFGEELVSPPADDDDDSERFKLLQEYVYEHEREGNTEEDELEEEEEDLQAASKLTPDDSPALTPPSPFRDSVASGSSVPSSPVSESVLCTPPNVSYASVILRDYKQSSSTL

[16] = Mutagenicity in Salmonella typhimurium in presence of S9 fraction by Ames test; assay type: toxicity, subcellular; settings: salmonella enterica subsp. enterica serovar typhimurium
[17] = Volume of distribution in dog at 0.25 mg/kg, iv; assay type: ADME, organism-based, Canis lupus familiaris; settings: in vivo
[18] = molecular target: T2, Cytochrome P450 2B6 (Homo sapiens, UniProt P20813); assay: […] of CYP2B6 (unknown origin); assay type: ADME
T2 sequence (P20813 whole entry): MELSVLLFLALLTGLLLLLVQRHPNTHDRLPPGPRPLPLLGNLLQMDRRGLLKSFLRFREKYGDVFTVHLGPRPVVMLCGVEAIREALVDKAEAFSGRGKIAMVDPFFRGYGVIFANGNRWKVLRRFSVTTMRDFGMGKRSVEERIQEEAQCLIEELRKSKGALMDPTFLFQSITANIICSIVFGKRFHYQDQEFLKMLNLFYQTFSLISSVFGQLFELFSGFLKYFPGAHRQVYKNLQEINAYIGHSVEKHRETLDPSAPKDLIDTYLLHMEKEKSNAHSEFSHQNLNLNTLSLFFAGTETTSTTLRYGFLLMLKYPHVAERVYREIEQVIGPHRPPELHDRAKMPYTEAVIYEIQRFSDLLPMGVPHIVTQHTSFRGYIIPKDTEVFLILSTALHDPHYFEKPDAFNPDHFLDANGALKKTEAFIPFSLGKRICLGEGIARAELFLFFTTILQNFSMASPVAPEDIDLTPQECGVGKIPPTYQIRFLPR

[19] = Fraction unbound in monkey plasma; assay type: ADME, cell-free, Macaca mulatta; settings: rhesus monkey
[20] = Fraction unbound in human plasma; assay type: ADME, cell-free
[21] = Apparent permeability in […] LLC-MDR1 cell; assay type: ADME, cell-based; settings: LLC-PK1
[22] = Oral bioavailability in rat at 2 mg/kg; assay type: ADME, organism-based; settings: in vivo
[23] = molecular target: Cytochrome P450 3A4 (Homo sapiens, UniProt P08684); assay: […] of CYP3A4 (unknown origin); assay type: ADME
Chain of Cytochrome P450 3A4 (P08684 whole entry): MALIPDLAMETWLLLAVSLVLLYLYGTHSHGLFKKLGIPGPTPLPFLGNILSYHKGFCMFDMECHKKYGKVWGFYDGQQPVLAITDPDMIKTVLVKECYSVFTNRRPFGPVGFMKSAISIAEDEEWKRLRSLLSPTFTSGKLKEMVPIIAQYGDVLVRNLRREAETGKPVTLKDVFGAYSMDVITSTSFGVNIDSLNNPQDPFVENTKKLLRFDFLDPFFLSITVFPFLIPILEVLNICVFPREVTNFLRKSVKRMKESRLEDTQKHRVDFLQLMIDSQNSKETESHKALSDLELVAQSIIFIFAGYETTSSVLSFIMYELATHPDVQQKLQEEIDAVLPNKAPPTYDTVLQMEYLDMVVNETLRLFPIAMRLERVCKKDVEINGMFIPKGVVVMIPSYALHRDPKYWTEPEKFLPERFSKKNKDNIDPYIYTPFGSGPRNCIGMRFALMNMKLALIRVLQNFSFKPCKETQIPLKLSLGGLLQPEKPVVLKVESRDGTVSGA

[24] = Unbound plasma concentration in rhesus monkey at 0.01 to 1 mg/kg, IM; assay type: ADME, organism-based, Macaca mulatta; settings: in vivo, dose 0.01-1 mg/kg
[25] = molecular target: T3, Cytochrome P450 2C8 (Homo sapiens, UniProt P10632); assay: […] of CYP2C8 (unknown origin); assay type: ADME
T3 sequence (P10632 whole entry): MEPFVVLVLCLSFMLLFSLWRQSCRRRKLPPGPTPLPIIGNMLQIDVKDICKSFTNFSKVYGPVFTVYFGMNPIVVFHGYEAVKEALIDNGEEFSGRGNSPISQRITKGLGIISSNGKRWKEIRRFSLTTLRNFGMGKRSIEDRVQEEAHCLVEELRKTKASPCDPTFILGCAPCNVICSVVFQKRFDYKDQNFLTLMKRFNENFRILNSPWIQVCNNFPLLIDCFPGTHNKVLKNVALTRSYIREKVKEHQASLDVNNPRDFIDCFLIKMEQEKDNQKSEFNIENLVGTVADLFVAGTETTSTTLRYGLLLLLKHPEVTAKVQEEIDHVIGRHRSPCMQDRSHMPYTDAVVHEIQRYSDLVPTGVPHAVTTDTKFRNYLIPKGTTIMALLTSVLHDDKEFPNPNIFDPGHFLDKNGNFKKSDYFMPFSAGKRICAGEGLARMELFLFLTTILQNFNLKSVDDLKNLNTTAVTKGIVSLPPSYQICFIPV

[26] = Effective half life in rat at 1 mg/kg, iv; assay type: ADME, organism-based; settings: in vivo, read-out: t1/2eff (converted)
[27] = Clearance in monkey at 0.5 mg/kg, iv; assay type: ADME, organism-based, Macaca mulatta; settings: rhesus monkey, in vivo
[28] = Solubility of the compound in FeSSIF; assay type: physicochemical
[29] = Effective half life in monkey at 0.5 mg/kg, iv; assay type: ADME, organism-based, Macaca mulatta; settings: rhesus monkey, in vivo, read-out: t1/2eff (converted)
[30] = Fraction unbound in rat plasma; assay type: ADME, cell-free
[31] = Clearance in dog at 0.25 mg/kg, iv; assay type: ADME, organism-based, Canis lupus familiaris; settings: in vivo
[32] = molecular target: Metabotropic glutamate receptor 4 (Homo sapiens, UniProt Q14833); assay: Negative allosteric modulation at mGluR4 receptor (unknown origin) assessed as effect on intracellular calcium flux measured after 5 min by Fluo-4AM dye based FLIPR analysis; assay type: functional, cell-based
Chain of Metabotropic glutamate receptor 4 (Q14833 whole entry): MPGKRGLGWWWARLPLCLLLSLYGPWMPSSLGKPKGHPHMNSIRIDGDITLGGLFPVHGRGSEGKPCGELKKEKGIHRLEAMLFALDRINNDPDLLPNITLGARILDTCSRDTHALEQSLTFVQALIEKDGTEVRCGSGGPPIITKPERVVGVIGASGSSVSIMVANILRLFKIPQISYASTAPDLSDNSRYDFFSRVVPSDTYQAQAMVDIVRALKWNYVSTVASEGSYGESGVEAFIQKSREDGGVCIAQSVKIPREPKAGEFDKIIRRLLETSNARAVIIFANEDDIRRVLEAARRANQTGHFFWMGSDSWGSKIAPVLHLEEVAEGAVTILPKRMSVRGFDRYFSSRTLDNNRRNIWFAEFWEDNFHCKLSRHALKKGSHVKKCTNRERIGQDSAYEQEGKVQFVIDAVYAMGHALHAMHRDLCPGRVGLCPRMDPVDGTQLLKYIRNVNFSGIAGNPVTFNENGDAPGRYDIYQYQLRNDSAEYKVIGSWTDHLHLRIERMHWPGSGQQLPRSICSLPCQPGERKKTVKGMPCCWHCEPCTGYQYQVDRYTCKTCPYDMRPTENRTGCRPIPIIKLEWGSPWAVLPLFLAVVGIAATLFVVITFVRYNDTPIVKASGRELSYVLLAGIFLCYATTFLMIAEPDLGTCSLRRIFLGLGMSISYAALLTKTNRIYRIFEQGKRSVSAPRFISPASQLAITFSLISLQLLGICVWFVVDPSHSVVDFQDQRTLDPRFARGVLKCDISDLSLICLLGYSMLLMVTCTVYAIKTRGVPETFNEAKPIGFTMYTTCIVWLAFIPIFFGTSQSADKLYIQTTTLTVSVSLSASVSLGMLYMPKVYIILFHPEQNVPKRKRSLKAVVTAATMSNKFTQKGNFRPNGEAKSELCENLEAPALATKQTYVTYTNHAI

[33] = molecular target: Metabotropic glutamate receptor 6 (Homo sapiens, UniProt O15303); assay: Negative allosteric modulation at mGluR6 receptor (unknown origin) assessed as effect on intracellular calcium flux measured after 5 min by Fluo-4AM dye based FLIPR analysis; assay type: functional, cell-based

Chain of Cytochrome P450 2D6 (P10635 whole entry): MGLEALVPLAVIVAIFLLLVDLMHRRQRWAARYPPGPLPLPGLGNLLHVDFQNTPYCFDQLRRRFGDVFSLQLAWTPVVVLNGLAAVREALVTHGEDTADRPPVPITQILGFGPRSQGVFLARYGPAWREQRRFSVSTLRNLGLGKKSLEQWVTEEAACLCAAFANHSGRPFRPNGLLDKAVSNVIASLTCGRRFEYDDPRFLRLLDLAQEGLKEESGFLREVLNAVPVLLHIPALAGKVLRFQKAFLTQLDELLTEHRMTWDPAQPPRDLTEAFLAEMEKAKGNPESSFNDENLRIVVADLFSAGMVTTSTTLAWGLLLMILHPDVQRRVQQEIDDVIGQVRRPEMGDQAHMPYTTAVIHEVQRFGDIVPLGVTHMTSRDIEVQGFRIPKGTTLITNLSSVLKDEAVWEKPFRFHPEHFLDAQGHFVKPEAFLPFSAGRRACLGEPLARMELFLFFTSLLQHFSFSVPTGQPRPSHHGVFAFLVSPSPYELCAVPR

## C[C@@H]1CN(Cc2ccc3c(-c4cnn(C)c4)cc(C(N)=O)nc3c2)C[C@H](C(F)(F)F)O1
[1]
  solubility: 440 µg/mL (≈ 1.02 mM)
[2]
  IC50: > 26 µM
[3]
  Vd: 3.2 L/kg
[4]
  solubility: 4100 µg/mL (≈ 9.46 mM)
[5]
  IC50: > 10 µM
[6]
  IC50: > 26 µM
[7]
  bioavailability: 34%
[8]
  half-life: 3.3 h
[9]
  IC50: > 26 µM
[10]
  clearance: 36 mL/min/kg
[11]
  IC50: 22 µM
[12]
  fraction unbound: 0.045
[13]
  IC50: > 26 µM
[14]
  Vd: 5.7 L/kg
[15]
  IC50: > 10 µM
[16]
  Activity: Non-Toxic
[17]
  Vd: 7.3 L/kg
[18]
  IC50: > 26 µM
[19]
  fraction unbound: 0.043
[20]
  fraction unbound: 0.025
[21]
  Papp: 32 ×10⁻⁶ cm/s
[22]
  bioavailability: 32%
[23]
  IC50: > 26 µM
[24]
  Cp(f): 3 nM
[25]
  IC50: > 26 µM
[26]
  half-life: 1.8 h
[27]
  clearance: 22 mL/min/kg
[28]
  solubility: 2100 µg/mL (≈ 4.85 mM)
[29]
  half-life: 1.7 h
[30]
  fraction unbound: 0.04
[31]
  clearance: 24 mL/min/kg
[32]
  IC50: > 10 µM
[33]
  IC50: > 10 µM
